The species named for one assay is Homo sapiens. Nature of the assay: In vitro inhibitory activity against human classical complement pathway. In kind it is functional.
Another assay deals with Cavia porcellus. Briefly: Inhibition dose of the Reverse Passive Arthus Reaction (RPAR) in guinea pig after intravenous administration at a dose 80 mg/kg. It counts as functional.

The IC50 is the concentration needed to halve the response being measured. Broadly, the inhibition in vivo is the relative decrease from the control value, in per cent. A low value points to a weak effect.

Take `O=C(O)c1ccc(-c2c(-c3ccccc3)[nH]c3ccccc23)cc1`: the half-maximal inhibitory concentration (IC50) in the assay listed under Homo sapiens was determined as 105 µM. In the assay listed under Homo sapiens, `O=C(O)C1CC=C(c2c(-c3ccccc3)[nH]c3ccccc23)CC1` (stereo not drawn) showed a 50% inhibitory concentration (IC50) of 135 µM. The inhibition in vivo at 80 mg/kg in the assay with Cavia porcellus was 64%.

(Values after ChEMBL document CHEMBL1122884, “Syntheses and complement inhibitory activities of 4-(2-phenyl-1H-indol-3-yl)cyclohexane-1-carboxylic acids” (J Med Chem, 1985).)
